# Where a name gives a salt, the structure may show the parent alone.
# Assays:
# [1] = test system: primary human hepatocytes; assay: RNA-seq of primary human hepatocytes treated with 39 small molecules (pilot and validation); details: for significant modulation of gene expression: RNA-seq, p-value≤0.05, primary human hepatocytes, the modulated genes are listed in the block; for Number (#) of genes having significantly changed expression: pilot RNA-seq study of Example 2, significance: FPKM≥0.5, log 2(fold change)≥1, q-value ≤0.05
# hepatocytes = assay: RNA-seq of hepatocytes treated with Phase III failure compounds; details: hepatocytes; for Number (#) of genes having significantly changed expression: Phase III failure compounds, significance: FPKM≥0.5, log 2(fold-change)≥1, q-value≥0.05 (so in the source)
# Experimental: RNA-seq was performed to determine the effects of the compounds on hepatocytes.
# Significance was determined by the criteria of FPKM≥0.5, a log 2(fold-change)≥1, and a […].
compound,measurement,setting,value
"CC1=C(/C=C/C(C)=C/C=C/C(C)=C/C(=O)O)C(C)(C)CCC1 [MT-603, Tretinoin (ATRA)]",significant modulation of gene expression,[1],significantly (p-value≤0.05) modulate
same,Number (#) of genes having significantly changed expression,[1],30
"NNC(=O)c1ccncc1 [MT-312, Isoniazid]",significant modulation of gene expression,[1],significantly (p-value≤0.05) modulate
same,Number (#) of genes having significantly changed expression,[1],14
"c1cc(-c2cnn3cc(-c4ccc(OCCN5CCCCC5)cc4)cnc23)ccn1 [MT-334, Dorsomorphin]",Number (#) of genes having significantly changed expression,[1],15
"CC(C)c1nc(CN(C)C(=O)N[C@H](C(=O)N[C@@H](Cc2ccccc2)C[C@H](O)[C@H](Cc2ccccc2)NC(=O)OCc2cncs2)C(C)C)cs1 [MT-372, Ritonavir]",significant modulation of gene expression,[1],significantly (p-value≤0.05) modulate
same,Number (#) of genes having significantly changed expression,[1],183
"COc1ccc(C[C@H](NC(C)=O)C(=O)N[C@H]2[C@@H](O)[C@H](n3cnc4c(N(C)C)ncnc43)O[C@@H]2CO)cc1 [MT-993, N-Acetylpurinomycin]",significant modulation of gene expression,[1],significantly (p-value≤0.05) modulate
"CCOc1ccn(-c2ccc(F)cc2)c(=O)c1C(=O)Nc1ccc(Oc2ccnc(N)c2Cl)c(F)c1 [MT-375, Bms777607]",significant modulation of gene expression,[1],significantly (p-value≤0.05) modulate
same,Number (#) of genes having significantly changed expression,[1],19
"CCCC(CCC)C(=O)O [MT-625, Valproate]",Number (#) of genes having significantly changed expression,[1],4
"CCCCC(C)(C)[C@H](O)/C=C/[C@H]1[C@H](O)CC(=O)[C@@H]1C/C=C\CCCC(=O)O [MT-937, DmPGE2]",significant modulation of gene expression,[1],significantly (p-value≤0.05) modulate
"CC(C)Cc1ccc(C(C)C(=O)O)cc1 (stereo not shown) [MT-662, Ibuprofen]",significant modulation of gene expression,[1],significantly (p-value≤0.05) modulate
same,Number (#) of genes having significantly changed expression,[1],18
"CN1CCC(CNc2ccc3ncc(-c4cccc(OC(F)(F)F)c4)n3n2)CC1 [MT-254, SGI-1776]",significant modulation of gene expression,[1],significantly (p-value≤0.05) modulate
same,Number (#) of genes having significantly changed expression,[1],64
"CCCc1cc(=O)[nH]c(=S)[nH]1 [MT-127, Propylthiouracil]",significant modulation of gene expression,[1],significantly (p-value≤0.05) modulate
same,Number (#) of genes having significantly changed expression,[1],8
"CC1(C)CC=C(c2ccccc2)c2cc(/C=C/c3ccc(C(=O)O)cc3)ccc21 [MT-232, Bms189453]",significant modulation of gene expression,[1],significantly (p-value≤0.05) modulate
same,Number (#) of genes having significantly changed expression,[1],1
"O=C(O)CC[C@H]1CC[C@@](c2cc(F)ccc2F)(S(=O)(=O)c2ccc(Cl)cc2)CC1 [MT-308, MK-0752]",significant modulation of gene expression,[1],significantly (p-value≤0.05) modulate
"CNCc1ccc(C)c(NC(=O)c2ccc(Nc3nc(-c4ccccc4)c4ccccc4n3)cc2)c1 [MT-636, Bms833923]",significant modulation of gene expression,[1],significantly (p-value≤0.05) modulate
same,Number (#) of genes having significantly changed expression,[1],66
"CO[C@H]1C[C@@H]2CC[C@@H](C)[C@@](O)(O2)C(=O)C(=O)N2CCCC[C@H]2C(=O)O[C@H]([C@H](C)C[C@@H]2CC[C@@H](O)[C@H](OC)C2)CC(=O)[C@H](C)/C=C(\C)[C@@H](O)[C@@H](OC)C(=O)[C@H](C)C[C@H](C)/C=C/C=C/C=C/1C [MT-882, Rapamycin]",Number (#) of genes having significantly changed expression,[1],67
"Cc1ccc(NC(=O)c2ccc(CN3CCN(C)CC3)cc2)cc1Nc1nccc(-c2cccnc2)n1 [MT-182, Imatinib]",significant modulation of gene expression,[1],significantly (p-value≤0.05) modulate
same,Number (#) of genes having significantly changed expression,[1],31
"CN(CCOc1ccc(CC2SC(=O)NC2=O)cc1)c1ccccn1 (stereo not shown) [MT-361, Rosiglitazone maleate]",Number (#) of genes having significantly changed expression,[1],78
"C=CC(=O)Nc1cccc(Nc2nc(Nc3ccc(N4CCN(C(C)=O)CC4)cc3OC)ncc2C(F)(F)F)c1 [CO-1686 (Rociletinib), Rociletinib]",Number (#) of genes having significantly changed expression,hepatocytes; RNA-seq,391
same,"B2M expression, RNA-seq result",hepatocytes; gene B2M,−0.08
same,"B9D2 expression, RNA-seq result",hepatocytes; gene B9D2,−0.29
same,"BAAT expression, RNA-seq result",hepatocytes; gene BAAT,0.22
same,"BBOX1 expression, RNA-seq result",hepatocytes; gene BBOX1,−0.45
same,"BBS10 expression, RNA-seq result",hepatocytes; gene BBS10,−0.28
same,"BCHE expression, RNA-seq result",hepatocytes; gene BCHE,−0.79
same,"BCKDHB expression, RNA-seq result",hepatocytes; gene BCKDHB,−0.38
same,"BCKDK expression, RNA-seq result",hepatocytes; gene BCKDK,−0.45
same,"BCO1 expression, RNA-seq result",hepatocytes; gene BCO1,−0.53
same,"BCR expression, RNA-seq result",hepatocytes; gene BCR,−0.26
same,"BLNK expression, RNA-seq result",hepatocytes; gene BLNK,0.75
same,"BLOC1S3 expression, RNA-seq result",hepatocytes; gene BLOC1S3,0.76
same,"BMPR1A expression, RNA-seq result",hepatocytes; gene BMPR1A,0.07
same,"BRAF expression, RNA-seq result",hepatocytes; gene BRAF,0.32
same,"BSCL2 expression, RNA-seq result",hepatocytes; gene BSCL2,−0.58
same,"BTD expression, RNA-seq result",hepatocytes; gene BTD,0.25
same,"C4A expression, RNA-seq result",hepatocytes; gene C4A,0.16
same,"C9 expression, RNA-seq result",hepatocytes; gene C9,−0.21
same,"C10orf10 expression, RNA-seq result",hepatocytes; gene C10orf10,0.81
same,"C10orf11 expression, RNA-seq result",hepatocytes; gene C10orf11,0.1
same,"C15orf41 expression, RNA-seq result",hepatocytes; gene C15orf41,0.03
same,"CA2 expression, RNA-seq result",hepatocytes; gene CA2,0.48
same,"CA5A expression, RNA-seq result",hepatocytes; gene CA5A,−0.02
same,"CA12 expression, RNA-seq result",hepatocytes; gene CA12,0.59
same,"CAV1 expression, RNA-seq result",hepatocytes; gene CAV1,−0.47
same,"CCND1 expression, RNA-seq result",hepatocytes; gene CCND1,−2.24
same,"CD46 expression, RNA-seq result",hepatocytes; gene CD46,−0.02
same,"CD81 expression, RNA-seq result",hepatocytes; gene CD81,0.02
same,"CD320 expression, RNA-seq result",hepatocytes; gene CD320,−0.58
same,"CDAN1 expression, RNA-seq result",hepatocytes; gene CDAN1,0.02
same,"CDH1 expression, RNA-seq result",hepatocytes; gene CDH1,−0.25
same,"CEP19 expression, RNA-seq result",hepatocytes; gene CEP19,−0.43
same,"CEP83 expression, RNA-seq result",hepatocytes; gene CEP83,−0.13
same,"CEP164 expression, RNA-seq result",hepatocytes; gene CEP164,−0.32
same,"CEP290 expression, RNA-seq result",hepatocytes; gene CEP290,−0.17
same,"CFB expression, RNA-seq result",hepatocytes; gene CFB,0.17
same,"CFHR2 expression, RNA-seq result",hepatocytes; gene CFHR2,−0.16
same,"CHRM3 expression, RNA-seq result",hepatocytes; gene CHRM3,−0.14
same,"CIDEC expression, RNA-seq result",hepatocytes; gene CIDEC,0.24
same,"CLDN1 expression, RNA-seq result",hepatocytes; gene CLDN1,−0.71
same,"COG1 expression, RNA-seq result",hepatocytes; gene COG1,−0.28
"Oc1nc(-c2ccc(C(F)(F)F)cc2)nc2c1CSCC2 [MT-713, Xav939]",significant modulation of gene expression,[1],significantly (p-value≤0.05) modulate
same,Number (#) of genes having significantly changed expression,[1],8
CC1(C)CC[C@]2(C(=O)O)CC[C@]3(C)[C@H](C(=O)C=C4[C@@]5(C)C=C(C#N)C(=O)C(C)(C)[C@@H]5CC[C@]43C)[C@@H]2C1 [Bardoxolone],significant modulation of expression of any of the genes analyzed,"hepatocytes; RNA-seq, p≤0.05",not observed to significantly modulate expression
CCC(CC)CC1(C(=O)Nc2ccccc2SC(=O)C(C)C)CCCCC1 [Dalcetrapib],Number (#) of genes having significantly changed expression,hepatocytes; RNA-seq,43
same,significant modulation of expression of disease genes,"hepatocytes; RNA-seq, q≤0.05, genes in the value or listed in the block",significantly (q≤0.05) modulate expression of CYP3A4 and GOSH
same,effect on disease gene expression,hepatocytes; RNA-seq,no effect on any disease gene
"CC(=O)Nc1ccc(O)cc1 [MT-922, Acetaminophen (paracetamol)]",Number (#) of genes having significantly changed expression,[1],3

# — patent publication US20210254056A1, “IDENTIFICATION AND TARGETED MODULATION OF GENE SIGNALING NETWORKS” (CAMP4 THERAPEUTICS CORPORATION, priority 2017, published 2021)
